Results on one molecule are retold here after paper PMC7297445, “Pharmacokinetic/Pharmacodynamic Determination and Preclinical Pharmacokinetics of the β-Lactamase Inhibitor ETX1317 and Its Orally Available Prodrug ETX0282” (ACS Infectious Diseases, 2020).

The nature of data set [1]: Plasma protein binding. The format is in vitro ADME, monkey. The procedure:
Plasma protein binding was determined by rapid equilibrium dialysis. Plasma was freshly prepared from blood samples drawn in to EDTA (anticoagulant) containing tubes. Plasma was prepared using a table-top centrifuge and spun per instruction of the tube manufacturer and specifications (Beckton, Dickinson and Company, Franklin Lakes, NJ) and placed on ice prior to use.
Pooled plasma samples were centrifuged at 2000 rpm (approximately 1400g) for 15 min at 4 °C to remove debris. Approximately 90% of the clear supernatant fraction was transferred to a separate tube. Samples (500 μL) were then spiked with a 100× stock solution 100 μM, 0.5 mM, and 10 mM ETX1317 in DMSO respectively for 1, 5, and 100 μM final concentrations, transferred to the top of the filter chambers, and allowed to equilibrate for 15 min prior to centrifugation. The filtrate tubes were centrifuged at 14000g for 15 min at 4 °C. Next, 50 μL of the filtrate was precipitated with 300 μL of acetonitrile containing 250 ng/mL of carbutamide as the internal standard and the samples were analyzed by LC/MS/MS analysis.

Data set [2] has as its system K. pneumoniae ARC4420. Put plainly: Chemostat in vitro infection model, dose fractionation. The format is cell-based. The settings on record: with CPD. As for the experimental part:
(§1) The PK/PD driver of ETX1317 was assessed in the presence of CPD in both hollow-fiber[28]−[31] and chemostat[32]in vitro infection model systems. In all cases, CPD was administered q12h via a 2 h infusion and eliminated with a 2 h half-life, with the concentration of drug exceeding the MIC (the MIC of CPD in the presence of ETX1317 at a 1:2 ratio) for 50% of the dosing interval for each strain. Representative Emax plots are shown graphically for Escherichia coli ARC2687 in the hollow-fiber model and Klebsiella pneumoniae ARC4420 in the chemostat system (Figure 2). […] This could partially be attributed to the distribution of the concentration ranges utilized for the hollow-fiber infection model (HFIM) where most of the data scatter occurred in the efficacious dose range for lower MIC strains. It is important to note that initial evaluation of K. pneumoniae ARC4420 and ARC5118 was completed in the HFIM but rapid degradation of CPD, presumably through accumulation of β-lactamases in the extra-capillary space of the cartridge precluded a reliable assessment of the PK/PD driver with these strains in this model.[32] […] In both the HFIM and chemostat models the optimum critical threshold of ETX1317 was established through iterative Emax fitting of a range of ETX1317 concentrations from 0.5× to 2× the CPD:ETX1317 MIC value. In the HFIM, %Time > ETX1317 CT of 2× MIC provided the highest correlation to observed activity which appeared to be independent to the apparent intrinsic activity of ETX1317 (as reflected by ETX1317 MICBLI of K. pneumoniae ARC4486 vs ARC4488). […] In both models CPD infused alone mimicked vehicle control as expected with similar growth of +2 to 4 log10 CFU/mL.
(§2) Enterobacteriaceae isolates E. coli ARC2687 and K. pneumoniae isolates ARC4486, ARC4488, ARC5118, and ARC4420 were prepared for infection from an overnight plate culture. On the day of the experiment, a few colonies of bacteria were inoculated in Mueller Hinton Broth II (MHBII, Sigma-Aldrich, St. Louis, MO) and incubated at 35 °C until reaching log-phase growth, about 1 h. In hollow-fiber studies cell population density is confirmed by turbidimetric assay (OD600) and final dilution is adjusted to deliver approximately 15 mL of bacteria (1 × 10^6 CFU/mL) to the extra-capillary space of the hollow-fiber cartridge (Fibercell Systems, Inc., Frederick, MD). After 1 h, targeted drug concentrations were introduced using a 2 h infusion via a syringe pump (Harvard Apparatus, Holliston, MA). […]
(§3) Dose range and dose fractionation were performed in hollow-fiber infection model (HFIM) and chemostat (one-compartment) in vitro infection model. […] CPD concentrations were targeted to achieve exposure of ∼50%Time > MIC determined in the presence of ETX1317. […]

For data set [3], the system named is K. pneumoniae ARC5118. The description is as above. Format: cell-based. The settings on record: with CPD. As for the experimental part:
as §1, §2, §3

The test system of data set [4] is K. pneumoniae ARC4488. The experiment in a line: Hollow-fiber infection model (HFIM), dose fractionation. Format: cell-based. The settings on record: with CPD. The procedure:
as §1
(§4) Enterobacteriaceae isolates E. coli ARC2687 and K. pneumoniae isolates ARC4486, ARC4488, ARC5118, and ARC4420 were prepared for infection from an overnight plate culture. On the day of the experiment, a few colonies of bacteria were inoculated in Mueller Hinton Broth II (MHBII, Sigma-Aldrich, St. Louis, MO) and incubated at 35 °C until reaching log-phase growth, about 1 h. In hollow-fiber studies cell population density is confirmed by turbidimetric assay (OD600) and final dilution is adjusted to deliver approximately 15 mL of bacteria (1 × 10^6 CFU/mL) to the extra-capillary space of the hollow-fiber cartridge (Fibercell Systems, Inc., Frederick, MD). After 1 h, targeted drug concentrations were introduced using a 2 h infusion via a syringe pump (Harvard Apparatus, Holliston, MA). For chemostat experiments approximately 1 mL of bacteria (1 × 10^8 CFU/mL) were introduced to the chemostat reservoir bottle with 100 mL MHBII to dilute bacterial culture and reach a target CFU density of 1 × 10^6 CFU/mL. After 5 min, each chemostat bottle was exposed to targeted drug with a 2 h infusion administered via syringe pump.
(§5) ETX1317 and CPD were dissolved in MHBII (accounting for potency) and delivered as a 2 h infusion via syringe pump (Harvard Apparatus, Holliston, MA). Solubility and stability were confirmed at room temperature for the experiment. Dose formulation potency was verified by LC/MS/MS.
(§6) Dose range and dose fractionation were performed in hollow-fiber infection model (HFIM) and chemostat (one-compartment) in vitro infection model. Bacteria treated with media only (growth control) and dose arms spanning a 64-fold exposure range of drug delivered within regimens of q6h, q12h, and q24h were used. E. coli ARC2687 and K. pneumoniae ARC4486 and ARC4488 were completed in the HFIM. K. pneumoniae ARC5118 and ARC4420 were studied in the chemostat system. CPD concentrations were targeted to achieve exposure of ∼50%Time > MIC determined in the presence of ETX1317. Both CPD and ETX1317 were administered via a 2 h infusion from syringe pumps (Harvard Apparatus) to mimic the approximate Cmax following oral absorption observed clinically for CDP. […]

Data set [5] relates to E. coli ARC2687. The data set is described as above. Format: cell-based. The settings on record: with CPD. As for the experimental part:
as §1, §4, §5, §6

Data set [6] relates to K. pneumoniae ARC4486. The data set is described as above. The settings on record: with CPD. The format is cell-based. As for the experimental part: as §1, §4, §5, §6

Consider `CC1=C[C@@H](C(N)=O)N2C[C@@H]1N(O[C@H](F)C(=O)O)C2=O` [ETX1317], for which the Proportion unbound in data set [1] (1 µM) is on record as 77%; in data set [1] (5 µM) it was 97%. For the same molecule, the “%Time > CT of 1 μg/mL for 1–log10 kill” value is recorded as 63% in data set [2]; 65% in data set [3]; 47% in data set [4]; 14% in data set [5]; 49% in data set [6]. Besides, the “%Time > CT of 1 μg/mL for stasis” value in data set [2] is reported as 59%; in data set [3], 60%; in data set [4], 43%; in data set [5], 7%; in data set [6] it was 37%.
